How the values were obtained:
Type in all cases: in vivo, mouse
[1] = tested on: normal mice; test: Body weight and daily food intake of normal mice under repeated dosing; details: for body weight after treatment / daily food intake compared with the control group / reduction in total body weight / body weight before treatment: normal mice; for body weight before treatment: start
Experimental: (§1) Mice were intraperitoneally injected with DMSO or HLY72 (dissolved in DMSO) 25 μL within 2 hours before turning off the lamp. During the intragastric experiment, the high concentration of HLY72 dissolved in DMSO was dissolved in 10% cyclodextrin, and the total volume was 100 μL Volume by gavage, so that the final concentration of DMSO was less than 10%. The diet was weighed at the 3rd hour, the 6th hour, the 12th hour, and the 24th hour respectively after the lights out. The corresponding mouse body weight was also weighed at the same time before the daily administration. The fat content of mice was measured with the magnetic resonance fat content measuring instrument of the animal platform in SIBCB.
After screening better small-molecule compound and probably determining its key groups, whether HLY72 has a weight-loss effect has become the most wanted result immediately. For this problem, we directly used normal mice intraperitoneally injected with HLY72 for 5 consecutive days.
In order to further investigate whether the administration of HLY72 by oral gavage also has a weight-loss effect, and because of the convenience of oral administration, many drugs are taken orally. We have also considered one step more for future applications, so that the administration of oral gavage was used to see the effect of HLY72 on the body weight of normal mice. The same was 20 mg/kg HLY72 intragastric treatment for 5 days.
After confirming that HLY72 can indeed reduce the weight of mice, we examine two more questions: (1) Whether HLY72's weight-reducing effect is dose-dependent; (2) Whether HLY72-like molecule HLY103 not binding to NUCB2 has a weight-reducing effect. […] We also do the statistics on the daily food intake of the mice in these three days, which is consistent with the conclusion of the short-term statistics in the previous day.

[2] = tested on: OB/OB obese model mice; test: Weight loss in OB/OB obese model mice
Excerpt: (§2) All animal experiments were approved by the Animal Management Committee of SIBCB. C57BL/6 mice were purchased from Lingchang company (normal mice and high-fat diet-induced obese mice), C57/BLJ6 (NUCB2 gene knockout mice for breeding and background purification) were purchased from Lingchang company, OB/OB mice were purchased from Slack company. A high-fat diet (45% kcal, D12451) for inducing obese mice was purchased from Research Diets. Starting from the sixth week, it was fed with high-fat diet for 14-25 weeks. The rest of the mice used normal diet (13.5% kcal). The mice were housed in the SPF grade animal house of SIBCB. The lights were turned off for 12 hours (19: 00-07: 00), and the lights were turned on for 12 hours (07: 00-19: 00).
as §1
After obtaining the above results, we now begin to use the small molecule HLY72 in obese mouse models. We first chose the obese mouse model (OB/OB) caused by Leptin mutation. An important reason for the persistence of obesity is the resistance and tolerance to regulatory factors such as Insulin and Leptin. And we are very pleased with the fact that NUCB2 can reduce the food intake of Leptin receptor mutant Zucker rats. In this regard, we can reasonably speculate that the small molecule HLY72 should also have an effect on OB/OB mice. Sure enough, the injection of HLY72 has a significant weight loss effect on OB/OB mice.

[3] = tested on: mice; test: Water consumption of mice; details: 20 mg/kg injection, three consecutive days
Experimental: Since OB/OB mice are a diabetic mouse model, they have the characteristics of polyphagia, polydipsia, and polyuria. […] Again whether HLY72 had the effect of reducing drinking water in mice was tested. […] For the mice of high-fat diet (HFD), the three-day water consumption is only 26.38%±2.06% of the control group (FIG. 9). Therefore, HLY72, like NUCB2/Nesfatin-1, has the effect of reducing water consumption in mice.

[4] = tested on: high-fat-induced obese mice; test: Weight loss in high-fat-induced obese mice, periodic intermittent administration; details: 20 mg/kg
Excerpt: as §2, §1
According to the previous results, it is considered that HLY72 should not be used continuously for a long time. In view of the fact that many mechanisms of NUCB2 functioning are still unclear, the simplest intermittent drug administration method was selected, that is, the drug was administered for 3 days, stopped for 4 days, one dosing cycle per week, and repeated for 3 courses (FIG. 10a).
In the high-fat-induced obese mouse model, three days after the first injection of HLY72, the body weight of the mice is decreased from 33.56±0.63 g to 31.61±0.74 g, and three days after the second administration, the body weight of mice is decreased from 31.23±0.57 g to 29.36±0.58 g, three days after the third administration, the body weight of mice is decreased from 29.39±0.51 g to 27.80±0.62 g, at the end of 21 days after 3 cycles, the overall weight of the mice is decreased from 33.56±0.63 g to 27.65±0.54 g (FIG. 10b). The whole process corresponds to 16.88%±0.51% of the total weight loss (FIG. 10c).

[5] = tested on: high-fat diet obese mice; test: Fat and muscle content (magnetic resonance) of high-fat diet obese mice
Experimental: as §1
In the experiment, high-fat diets were used to feed obese mice weighing about 40 grams for 22 weeks, according to the way used in the previous 3 courses.

[6] = tested on: NUCB2 gene knockout heterozygous mice; test: Effect on NUCB2 gene knockout heterozygous mice
Excerpt: Heterozygous mice prepared by the CRISPR-Cas9 system were purchased from Xiamen University. […] Heterozygous mice deleted 83 bases in E3 and confirmed by sequencing (FIG. 17c). In order to facilitate the experiment, for mice with 83 bases deleted, we designed primers to detect by PCR (FIG. 17b). Because of the failure to obtain NUCB2 knockout homozygous mice for multiple matches, only heterozygous mice can be used for research.

[7] = intraperitoneal 20 mg/kg, 5 consecutive days
[8] = OB/OB mice, 20 mg/kg injection, 7 consecutive days

## C=Cc1cccc2c1N(C)Cc1cc3c(cc1-2)OCO3 [HLY72]
[1]; intraperitoneal, 3 consecutive days, HLY72 10 and 20 mg/kg, HLY103 20 mg/kg
  effect on body weight / weight loss: concentration gradient
[1]; [7]
  body weight after treatment: 23.37 ± 0.36 g
  daily food intake compared with the control group: significantly reduced
  reduction in total body weight: 9.21%±0.74%
[1]; intraperitoneal 20 mg/kg
  body weight before treatment: 25.73 ± 0.29 g
[1]; oral gavage 20 mg/kg, 5 days
  body weight after treatment: 23.14 ± 0.45 g
  daily food intake compared with the control group: decreased significantly
  reduction in total body weight: 8.43%±0.81%
[1]; oral gavage 20 mg/kg
  body weight before treatment: 25.26 ± 0.37 g
[2]; OB/OB mice injected with HLY72
  urine of mice: significantly reduced
[2]; OB/OB mice, 20 mg/kg injection
  daily food intake compared with the DMSO group: significantly reduced
[2]; [8]
  body weight after treatment: 37.73 ± 0.87 g
  reduction in total body weight: 10.15%±0.87%
[2]; OB/OB mice, 20 mg/kg injection, start
  body weight before treatment: 42.02 ± 1.01 g
[3]; high-fat diet (HFD) mice
  three-day water consumption of treated mice, percent of control group: 26.38%±2.06%
[3]; normal chow diet (NCD) mice
  three-day water consumption of treated mice, percent of control group: 39.68%±2.29%
[4]
  average daily food intake in the three administration periods compared with the DMSO group: significant decrease
[4]; 3 cycles
  overall weight at the end of 21 days after 3 cycles: 27.65 ± 0.54 g
[4]; 3 days on / 4 days off, start
  body weight before the first administration: 33.56 ± 0.63 g
[4]; course 1
  body weight three days after the first injection: 31.61 ± 0.74 g
[4]; course 2
  body weight before the second administration: 31.23 ± 0.57 g
  body weight three days after the second administration: 29.36 ± 0.58 g
[4]; course 3
  body weight before the third administration: 29.39 ± 0.51 g
  body weight three days after the third administration: 27.80 ± 0.62 g
[4]; whole process, 21 days, 3 cycles
  total weight loss: 16.88%±0.51%
[5]; obese mice about 40 g, high-fat diet 22 weeks, 20 mg/kg courses of injection
  weight of mice: significantly reduce
[5]; obese mice, 20 mg/kg courses
  increase of the proportion of muscle: about 9 percentage points
[5]; obese mice, MRI fat content measuring instrument, 20 mg/kg courses
  fat content: significantly reduced
[6]
  effect on daily food intake in heterozygous mice: reduced
  effect on mouse weight in heterozygous mice: reduced
